Measurements taken from ChEMBL document CHEMBL2384934, “Discovery of 3-phenyl-1H-5-pyrazolylamine derivatives containing a urea pharmacophore as potent and efficacious inhibitors of FMS-like tyrosine kinase-3 (FLT3)” (Bioorg Med Chem, 2013).

Assays:
[1] = target: Insulin-like growth factor 1 receptor (Homo sapiens) (UniProt P08069); experiment: Inhibition of IGF1R (unknown origin) at 1 uM
[2] = target: Tyrosine-protein kinase JAK1 (Homo sapiens) (UniProt P23458); experiment: Inhibition of JAK1 (unknown origin) at 1 uM
[3] = Half life in Sprague-Dawley rat at 2 mg/kg, iv; format: ADME, organism-based; design: dose 2 mg/kg, route intravenous; details: in vivo
[4] = AUC (0 to infinity) in Sprague-Dawley rat at 2 mg/kg, iv; format: ADME, organism-based; design: time infinity, dose 2 mg/kg, route intravenous; details: plasma
[5] = target: Macrophage colony-stimulating factor 1 receptor (Homo sapiens) (UniProt P07333); experiment: Inhibition of CSF1R (unknown origin) at 1 uM
[6] = system: K562; experiment: cells; details: Homo sapiens, K562, 72 h
Description: Cytotoxicity against human FLT3-negative K562 cells harboring wild type BCR/ABL after 72 hrs by MTS assay

[7] = system: Mus musculus; experiment: Toxicity in mouse assessed as loss of body weight at 25 mg/kg, iv for 5 days; format: organism-based; design: dose 25 mg/kg, route intravenous; details: in vivo, 120 h
[8] = target: Proto-oncogene tyrosine-protein kinase Src (Homo sapiens) (UniProt P12931); experiment: Inhibition of SRC (unknown origin) at 1 uM
[9] = target: Ephrin type-A receptor 2 (Homo sapiens) (UniProt P29317); experiment: Inhibition of EPHA2 (unknown origin) at 1 uM
[10] = target: High affinity nerve growth factor receptor (Homo sapiens) (UniProt P04629); experiment: Inhibition of NTRK1 (unknown origin) at 1 uM
High affinity nerve growth factor receptor (Homo sapiens), sequence (P04629 33-796 limits assumed): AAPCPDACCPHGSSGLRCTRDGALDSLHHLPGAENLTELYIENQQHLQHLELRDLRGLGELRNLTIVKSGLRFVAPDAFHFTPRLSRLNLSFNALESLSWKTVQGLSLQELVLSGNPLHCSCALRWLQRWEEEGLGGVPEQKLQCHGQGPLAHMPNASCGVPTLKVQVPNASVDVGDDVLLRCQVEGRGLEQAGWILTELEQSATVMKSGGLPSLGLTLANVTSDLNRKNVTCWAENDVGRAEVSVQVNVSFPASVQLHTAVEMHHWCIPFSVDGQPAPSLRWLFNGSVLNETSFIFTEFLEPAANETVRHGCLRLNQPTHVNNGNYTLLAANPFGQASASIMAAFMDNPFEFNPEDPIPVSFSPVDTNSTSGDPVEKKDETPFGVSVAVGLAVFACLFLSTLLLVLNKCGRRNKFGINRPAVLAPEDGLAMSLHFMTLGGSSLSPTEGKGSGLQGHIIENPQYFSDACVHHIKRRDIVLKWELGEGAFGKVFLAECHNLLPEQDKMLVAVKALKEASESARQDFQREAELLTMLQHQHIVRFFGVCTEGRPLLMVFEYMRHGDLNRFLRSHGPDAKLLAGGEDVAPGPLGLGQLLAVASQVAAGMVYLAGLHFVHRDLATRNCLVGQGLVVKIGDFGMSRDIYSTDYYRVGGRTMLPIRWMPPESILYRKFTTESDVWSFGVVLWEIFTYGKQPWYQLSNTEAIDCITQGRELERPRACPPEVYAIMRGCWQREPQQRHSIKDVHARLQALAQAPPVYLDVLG

[11] = system: MOLM-13; experiment: Antitumor activity against human MOLM13 cells xenografted in nu/nu mouse at 1mg/kg, iv qd administered on days 1 to 5 and days 8 to 12 measured on day 11; format: functional; details: MOLM-13, iv, 264 h, read-out: TGI
[12] = target: Vascular endothelial growth factor receptor 3 (Homo sapiens) (UniProt P35916); experiment: Inhibition of FLT4 (unknown origin) at 1 uM by kinase Glo assay
[13] = system: MV4-11; experiment: Cytotoxicity against human MV4-11 cells harboring FLT3/ITD mutant after 72 hrs by MTS assay; format: functional; details: MV4-11, 72 h
[14] = target: Serine/threonine-protein kinase mTOR (Homo sapiens) (UniProt P42345); experiment: Inhibition of FRAP1 (unknown origin) at 1 uM by kinase Glo assay
[15] = target: T1, Aurora kinase A (Homo sapiens, UniProt O14965); experiment: biochemical
T1 sequence (O14965 whole entry): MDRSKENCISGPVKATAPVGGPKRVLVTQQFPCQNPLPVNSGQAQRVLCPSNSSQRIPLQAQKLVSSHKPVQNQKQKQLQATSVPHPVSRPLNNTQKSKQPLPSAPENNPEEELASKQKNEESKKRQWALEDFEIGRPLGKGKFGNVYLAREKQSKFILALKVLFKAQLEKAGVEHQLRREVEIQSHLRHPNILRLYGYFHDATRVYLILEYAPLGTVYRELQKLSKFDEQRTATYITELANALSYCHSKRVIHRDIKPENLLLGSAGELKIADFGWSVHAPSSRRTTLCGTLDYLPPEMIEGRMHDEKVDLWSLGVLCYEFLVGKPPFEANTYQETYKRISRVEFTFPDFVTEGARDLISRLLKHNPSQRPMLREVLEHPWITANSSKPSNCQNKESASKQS
Description: Inhibition of recombinant GST tagged Aurora A kinase (123 to 401) (unknown origin) transfected in insect sf9 cells after 90 mins by wallac counting analysis

[16] = target: Mitogen-activated protein kinase 10 (Homo sapiens) (UniProt P53779); experiment: Inhibition of MAPK10 (unknown origin) at 1 uM
[17] = target: Mitogen-activated protein kinase 8 (Homo sapiens) (UniProt P45983); experiment: Inhibition of MAPK8 (unknown origin) at 1 uM
Mitogen-activated protein kinase 8 (Homo sapiens), sequence (P45983 whole entry): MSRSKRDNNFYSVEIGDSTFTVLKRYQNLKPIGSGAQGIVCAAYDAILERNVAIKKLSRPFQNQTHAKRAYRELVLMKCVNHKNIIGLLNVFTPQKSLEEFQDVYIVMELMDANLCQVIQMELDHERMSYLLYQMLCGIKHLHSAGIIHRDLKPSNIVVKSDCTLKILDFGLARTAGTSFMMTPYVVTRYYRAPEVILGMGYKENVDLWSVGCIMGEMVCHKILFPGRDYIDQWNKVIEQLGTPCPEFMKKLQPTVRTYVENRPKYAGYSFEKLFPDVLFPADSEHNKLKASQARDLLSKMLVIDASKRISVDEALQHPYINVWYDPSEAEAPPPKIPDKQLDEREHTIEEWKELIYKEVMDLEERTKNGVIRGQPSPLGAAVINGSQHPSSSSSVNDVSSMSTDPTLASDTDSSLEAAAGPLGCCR

[18] = target: Receptor tyrosine-protein kinase erbB-2 (Homo sapiens) (UniProt P04626); experiment: Inhibition of ERBB2 (unknown origin) at 1 uM
[19] = target: AMP-activated protein kinase (AMPK) alpha-1/beta-1/gamma-1 (Homo sapiens) (UniProt P54619+Q9Y478+Q13131); experiment: Inhibition of Ampk A1/B1/G1 (unknown origin) at 1 uM; format: protein-complex assay
[20] = target: Inhibitor of nuclear factor kappa-B kinase subunit epsilon (Homo sapiens) (UniProt Q14164); experiment: Inhibition of IKBKE (unknown origin) at 1 uM
[21] = target: Fibroblast growth factor receptor 1 (Homo sapiens) (UniProt P11362); experiment: Inhibition of FGFR1 (unknown origin) at 1 uM
[22] = system: Mus musculus; experiment: Toxicity in nu/nu mouse xenografted with human MOLM13 cells at 1 to 10 mg/kg, iv qd administered on days 1 to 5 and day 8 to 12; format: organism-based, MOLM-13; design: route intravenous; details: in vivo
[23] = target: Vascular endothelial growth factor receptor 2 (Homo sapiens, UniProt P35968); experiment: Inhibition of KDR (unknown origin) at 1 uM by kinase Glo assay
[24] = target: Tyrosine-protein kinase receptor TYRO3 (Homo sapiens) (UniProt Q06418); experiment: Inhibition of TYRO3 (unknown origin) at 1 uM
[25] = target: Platelet-derived growth factor receptor alpha (Homo sapiens) (UniProt P16234); experiment: Inhibition of PDGFRA (unknown origin) at 1 uM by kinase Glo assay
Platelet-derived growth factor receptor alpha (Homo sapiens), sequence (P16234 whole entry): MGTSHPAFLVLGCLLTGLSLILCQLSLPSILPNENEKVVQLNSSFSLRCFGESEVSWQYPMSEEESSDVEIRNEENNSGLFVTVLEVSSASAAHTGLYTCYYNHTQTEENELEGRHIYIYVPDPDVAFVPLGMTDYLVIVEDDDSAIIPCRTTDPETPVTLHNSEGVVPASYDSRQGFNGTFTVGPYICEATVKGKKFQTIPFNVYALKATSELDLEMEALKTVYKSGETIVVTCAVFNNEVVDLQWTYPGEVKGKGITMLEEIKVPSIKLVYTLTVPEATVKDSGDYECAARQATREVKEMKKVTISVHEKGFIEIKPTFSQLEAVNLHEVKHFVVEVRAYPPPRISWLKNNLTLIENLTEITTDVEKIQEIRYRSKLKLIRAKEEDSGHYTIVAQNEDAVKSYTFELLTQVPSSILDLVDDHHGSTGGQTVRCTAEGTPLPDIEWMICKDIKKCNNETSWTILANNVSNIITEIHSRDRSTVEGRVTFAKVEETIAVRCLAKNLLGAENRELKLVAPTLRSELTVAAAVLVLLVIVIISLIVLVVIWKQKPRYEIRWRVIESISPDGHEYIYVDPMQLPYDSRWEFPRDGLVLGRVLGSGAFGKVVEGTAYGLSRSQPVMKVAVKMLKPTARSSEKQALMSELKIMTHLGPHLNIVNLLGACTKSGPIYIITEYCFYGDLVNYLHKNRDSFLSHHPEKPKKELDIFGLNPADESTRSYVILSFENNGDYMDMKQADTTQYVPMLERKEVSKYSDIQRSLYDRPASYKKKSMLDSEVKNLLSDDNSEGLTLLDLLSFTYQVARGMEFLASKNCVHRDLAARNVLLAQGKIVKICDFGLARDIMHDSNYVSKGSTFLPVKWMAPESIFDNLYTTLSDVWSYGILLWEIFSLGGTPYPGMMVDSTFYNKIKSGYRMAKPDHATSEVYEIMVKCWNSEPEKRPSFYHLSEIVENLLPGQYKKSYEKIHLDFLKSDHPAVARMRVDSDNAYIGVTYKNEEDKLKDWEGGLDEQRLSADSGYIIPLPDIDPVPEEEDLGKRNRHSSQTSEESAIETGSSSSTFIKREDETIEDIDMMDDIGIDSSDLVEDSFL

[26] = target: Tyrosine-protein kinase JAK2 (Homo sapiens) (UniProt O60674); experiment: Inhibition of JAK2 (unknown origin) at 1 uM
[27] = target: Tyrosine-protein kinase JAK3 (Homo sapiens) (UniProt P52333); experiment: Inhibition of JAK3 (unknown origin) at 1 uM
Tyrosine-protein kinase JAK3 (Homo sapiens), sequence (P52333 whole entry): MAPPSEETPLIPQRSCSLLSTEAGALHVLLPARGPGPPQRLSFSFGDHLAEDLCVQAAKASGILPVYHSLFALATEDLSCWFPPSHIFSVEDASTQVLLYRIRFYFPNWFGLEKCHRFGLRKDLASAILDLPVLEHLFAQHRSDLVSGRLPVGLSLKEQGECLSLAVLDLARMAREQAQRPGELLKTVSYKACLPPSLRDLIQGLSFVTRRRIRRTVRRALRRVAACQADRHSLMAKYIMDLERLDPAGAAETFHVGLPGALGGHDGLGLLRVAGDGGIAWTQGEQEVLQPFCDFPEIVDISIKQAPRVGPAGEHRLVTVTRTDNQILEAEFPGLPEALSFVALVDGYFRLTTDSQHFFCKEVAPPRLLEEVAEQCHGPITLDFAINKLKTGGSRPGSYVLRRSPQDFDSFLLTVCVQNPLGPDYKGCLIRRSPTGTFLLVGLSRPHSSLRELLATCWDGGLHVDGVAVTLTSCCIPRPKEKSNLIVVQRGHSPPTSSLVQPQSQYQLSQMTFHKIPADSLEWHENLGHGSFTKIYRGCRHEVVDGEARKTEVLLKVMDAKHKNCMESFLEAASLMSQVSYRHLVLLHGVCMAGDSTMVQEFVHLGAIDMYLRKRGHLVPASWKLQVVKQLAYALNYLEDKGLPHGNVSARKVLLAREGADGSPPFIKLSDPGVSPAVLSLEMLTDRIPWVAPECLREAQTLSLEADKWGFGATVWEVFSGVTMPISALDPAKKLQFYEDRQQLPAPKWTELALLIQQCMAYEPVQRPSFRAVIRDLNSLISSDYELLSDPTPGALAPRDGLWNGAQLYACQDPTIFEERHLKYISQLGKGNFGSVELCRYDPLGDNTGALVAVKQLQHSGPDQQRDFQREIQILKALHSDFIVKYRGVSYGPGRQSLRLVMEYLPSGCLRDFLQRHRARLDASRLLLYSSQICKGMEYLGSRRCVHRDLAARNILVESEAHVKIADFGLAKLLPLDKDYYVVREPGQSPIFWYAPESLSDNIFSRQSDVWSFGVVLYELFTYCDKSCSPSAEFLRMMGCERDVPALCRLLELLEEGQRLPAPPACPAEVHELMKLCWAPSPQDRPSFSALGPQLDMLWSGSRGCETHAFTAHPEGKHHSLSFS

[28] = target: Tyrosine-protein kinase BTK (Homo sapiens) (UniProt Q06187); experiment: Inhibition of BTK (unknown origin) at 1 uM
[29] = target: Aurora kinase B (Homo sapiens) (UniProt Q96GD4); experiment: Inhibition of AURKB (unknown origin) at 1 uM
[30] = target: Mast/stem cell growth factor receptor Kit (Homo sapiens) (UniProt P10721); experiment: Inhibition of KIT (unknown origin) at 1 uM
Mast/stem cell growth factor receptor Kit (Homo sapiens), sequence (P10721 whole entry): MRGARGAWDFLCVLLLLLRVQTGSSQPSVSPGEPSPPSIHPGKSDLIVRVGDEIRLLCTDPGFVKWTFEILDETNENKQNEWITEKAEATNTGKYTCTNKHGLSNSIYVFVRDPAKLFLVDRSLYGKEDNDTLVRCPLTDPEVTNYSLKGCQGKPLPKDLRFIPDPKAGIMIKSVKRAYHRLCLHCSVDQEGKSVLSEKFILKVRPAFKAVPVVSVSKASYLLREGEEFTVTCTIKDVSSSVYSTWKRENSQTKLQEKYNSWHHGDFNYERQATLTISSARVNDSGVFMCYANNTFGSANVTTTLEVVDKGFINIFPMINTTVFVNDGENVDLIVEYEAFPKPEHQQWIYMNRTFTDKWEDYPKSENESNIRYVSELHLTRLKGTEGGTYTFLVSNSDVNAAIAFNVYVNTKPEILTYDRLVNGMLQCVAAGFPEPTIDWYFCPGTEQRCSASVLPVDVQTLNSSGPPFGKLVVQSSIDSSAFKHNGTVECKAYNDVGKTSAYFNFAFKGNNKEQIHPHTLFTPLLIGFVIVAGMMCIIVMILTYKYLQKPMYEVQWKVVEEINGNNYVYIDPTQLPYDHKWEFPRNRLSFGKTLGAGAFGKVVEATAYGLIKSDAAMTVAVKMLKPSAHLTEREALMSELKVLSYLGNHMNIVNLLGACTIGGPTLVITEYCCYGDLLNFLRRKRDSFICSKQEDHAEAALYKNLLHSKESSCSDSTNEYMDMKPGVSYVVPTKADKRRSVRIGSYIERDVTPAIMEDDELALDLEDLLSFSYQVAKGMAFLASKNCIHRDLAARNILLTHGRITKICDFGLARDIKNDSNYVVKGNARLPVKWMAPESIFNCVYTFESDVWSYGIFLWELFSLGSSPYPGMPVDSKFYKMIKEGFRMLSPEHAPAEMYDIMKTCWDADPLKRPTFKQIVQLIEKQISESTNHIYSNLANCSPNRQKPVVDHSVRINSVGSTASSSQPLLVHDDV

[31] = system: U-937; experiment: cells; details: Homo sapiens, U-937, 72 h
Description: Cytotoxicity against human FLT3 negative U937 cells after 72 hrs by MTS assay

[32] = Oral bioavailability in Sprague-Dawley rat at 10 mg/kg; format: ADME, organism-based; details: in vivo
[33] = target: Mitogen-activated protein kinase 14 (Homo sapiens) (UniProt Q16539); experiment: Inhibition of MAPK14 (unknown origin) at 1 uM
[34] = cells; details: Homo sapiens, RS4-11, 72 h
Description: Cytotoxicity against human RS4:11 cells harboring wild type FLT3 after 72 hrs by MTS assay

[35] = system: Mus musculus; experiment: Toxicity in mouse assessed as mortality at 25 mg/kg, iv for 5 days; format: organism-based; design: dose 25 mg/kg, route intravenous; details: in vivo, 120 h
[36] = target: Serine/threonine-protein kinase Chk2 (Homo sapiens) (UniProt O96017); experiment: Inhibition of CHK2 (unknown origin) at 1 uM by kinase Glo assay
[37] = target: Serine/threonine-protein kinase Chk1 (Homo sapiens) (UniProt O14757); experiment: Inhibition of CHK1 (unknown origin) at 1 uM by kinase Glo assay
Serine/threonine-protein kinase Chk1 (Homo sapiens), sequence (O14757 whole entry): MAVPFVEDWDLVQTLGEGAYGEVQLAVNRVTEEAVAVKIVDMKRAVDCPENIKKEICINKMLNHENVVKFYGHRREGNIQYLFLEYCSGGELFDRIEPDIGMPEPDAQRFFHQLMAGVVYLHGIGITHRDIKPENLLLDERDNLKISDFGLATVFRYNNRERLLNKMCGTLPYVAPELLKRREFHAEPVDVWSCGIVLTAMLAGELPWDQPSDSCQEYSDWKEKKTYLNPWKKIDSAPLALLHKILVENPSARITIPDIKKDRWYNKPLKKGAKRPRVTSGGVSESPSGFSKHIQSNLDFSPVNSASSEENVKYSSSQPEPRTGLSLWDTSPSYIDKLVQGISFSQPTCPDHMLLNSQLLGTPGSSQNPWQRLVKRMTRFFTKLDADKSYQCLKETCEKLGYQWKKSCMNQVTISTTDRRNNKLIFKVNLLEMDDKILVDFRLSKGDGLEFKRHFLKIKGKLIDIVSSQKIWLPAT

[38] = system: MOLM-13; experiment: Antitumor activity against human MOLM13 cells xenografted in nu/nu mouse at 3 mg/kg, iv qd administered on days 1 to 5 and days 8 to 12 measured on day 11; format: functional; details: MOLM-13, 264 h, read-out: TGI

Question: With `CC(C)(C)c1cc(NC(=O)NCc2ccc(-c3cc(NC(=O)c4ccc(OCCN5CCOCC5)cc4)[nH]n3)cc2)no1` as the compound, how does the inhibition [1] read?
Answer: -1%

Question: What about the inhibition [2] of the same compound?
Answer: 82%

Question: And the half-life [3]?
Answer: 6.2 h

Question: What about the AUC(0-inf) [4] of the same compound?
Answer: 3140 ng·h/mL

Question: What about the inhibition [5] of the same compound?
Answer: 95%

Question: And the GI50 [6]?
Answer: 11800 nM

Question: What about the Activity [7] of the same compound?
Answer: Non-toxic

Question: And the inhibition [8]?
Answer: 35%

Question: What about the inhibition [9] of the same compound?
Answer: 19%

Question: And the inhibition [10]?
Answer: 98%

Question: And the inhibition in vivo at 1 mg/kg [11]?
Answer: 66%

Question: And the inhibition [12]?
Answer: 86%

Question: And the GI50 [13]?
Answer: 2 nM

Question: What about the inhibition [14] of the same compound?
Answer: -1%

Question: What about the IC50 [15] of the same compound?
Answer: > 1000 nM

Question: What about the inhibition [16] of the same compound?
Answer: -3%

Question: And the inhibition [17]?
Answer: -3%

Question: What about the inhibition [18] of the same compound?
Answer: -1%

Question: What about the inhibition [19] of the same compound?
Answer: 94%

Question: What about the inhibition [20] of the same compound?
Answer: -5%

Question: What about the inhibition [21] of the same compound?
Answer: 48%

Question: What about the Activity [22] of the same compound?
Answer: Non-toxic

Question: And the inhibition [23]?
Answer: 99%

Question: What about the inhibition [24] of the same compound?
Answer: 24%

Question: And the inhibition [25]?
Answer: 85%

Question: And the inhibition [26]?
Answer: 79%

Question: What about the inhibition [27] of the same compound?
Answer: 27%

Question: What about the inhibition [28] of the same compound?
Answer: -6%

Question: And the inhibition [29]?
Answer: 79%

Question: What about the inhibition [30] of the same compound?
Answer: 68%

Question: What about the GI50 [31] of the same compound?
Answer: > 20000 nM

Question: What about the bioavailability [32] of the same compound?
Answer: 1%

Question: What about the inhibition [33] of the same compound?
Answer: 3%

Question: What about the GI50 [34] of the same compound?
Answer: 900 nM

Question: And the Activity [35]?
Answer: Non-toxic

Question: What about the inhibition [36] of the same compound?
Answer: 10%

Question: And the inhibition [37]?
Answer: 2%

Question: And the inhibition in vivo at 3 mg/kg [38]?
Answer: 7%
